The experiment concerns the target T1, human Cereblon WT GST-tagged protein (Homo sapiens, UniProt Q96SW2).
T1 construct: purchased CISBIO 64BDCRBNPEH
The experiment in a line: CRBN binding, HTRF CEREBLON BINDING kit. The procedure, abridged: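 HTRF competition in which test compounds displace a Thalidomide-Re tracer from GST-tagged human Cereblon WT, detected with a GST Eu antibody. Incubation lasted 3 hours at room temperature, with emission read at 620 and 665 nm. Inhibition rate was derived from 665/620 ratios relative to blank and solvent control wells.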
In general terms: Time-resolved FRET reads energy transfer from a long-lived donor to a nearby acceptor.

Setting [1] is: CRBN binding, HTRF CEREBLON BINDING kit.

Like-named read-outs stand apart in the source and are kept apart here.

As a reminder, the IC50 is the concentration at which inhibition is half-maximal. Lower therefore signals higher potency. For orientation: inhibition means the relative decrease from the control value, in per cent.

T1 sequence (Q96SW2 whole entry): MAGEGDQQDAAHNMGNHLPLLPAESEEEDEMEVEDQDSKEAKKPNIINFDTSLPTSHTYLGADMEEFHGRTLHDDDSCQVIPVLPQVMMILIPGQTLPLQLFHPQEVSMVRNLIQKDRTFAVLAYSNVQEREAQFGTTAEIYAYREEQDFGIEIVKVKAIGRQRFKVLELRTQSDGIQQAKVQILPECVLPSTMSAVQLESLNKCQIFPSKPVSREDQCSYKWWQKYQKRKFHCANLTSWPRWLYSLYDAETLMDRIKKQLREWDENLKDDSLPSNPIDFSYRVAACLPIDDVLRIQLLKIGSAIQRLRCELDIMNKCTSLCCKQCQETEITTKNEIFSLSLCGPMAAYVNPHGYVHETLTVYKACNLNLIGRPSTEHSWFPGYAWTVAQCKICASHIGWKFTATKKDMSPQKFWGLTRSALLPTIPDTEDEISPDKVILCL

Compound `COc1cc(N2CCN(Cc3cncc(N4CCC(=O)NC4=O)c3)CC2)ccc1Nc1ncc(Cl)c(Nc2ccccc2P(C)(C)=O)n1` [GT-07709, 1-(5-((4-(4-((5-chloro-4-((2-(dimethylphosphoryl)phenyl)amino)pyrimidin-2-yl)amino)-3-methoxyphenyl)piperazin-1-yl)methyl)pyridin-3-yl)dihydropyrimidine-2,4(1H,3H)-dione] displayed an IC50 under setting [1] of 500 to 1000 nM.

Regarding `COc1cc(N2CCN(Cc3cc(C4CCC(=O)NC4=O)cnc3F)CC2)ccc1Nc1ncc(Cl)c(Nc2ccccc2P(C)(C)=O)n1` (stereo not shown) [GT-07710, 3-(5-((4-(4-((5-chloro-4-((2-(dimethylphosphoryl)phenyl)amino)pyrimidin-2-yl)amino)-3-methoxyphenyl)piperazin-1-yl)methyl)-6-fluoropyridin-3-yl)piperidine-2,6-dione], under setting [1], the IC50 is less than 500 nM.

Under setting [1], `COc1cc(N2CCN(Cc3ccc(C4CCC(=O)NC4=O)cn3)CC2)ccc1Nc1ncc(Cl)c(Nc2ccccc2P(C)(C)=O)n1` (stereo not shown) [GT-07713, 3-(6-((4-(4-((5-chloro-4-((2-(dimethylphosphoryl)phenyl)amino)pyrimidin-2-yl)amino)-3-methoxyphenyl)piperazin-1-yl)methyl)pyridin-3-yl)piperidine-2,6-dione] yielded an IC50 of 500 to 1000 nM.

`COc1cc(N2CCN(Cc3cncc(C4CCC(=O)NC4=O)c3)CC2)ccc1Nc1ncc(Cl)c(Nc2ccccc2P(C)(C)=O)n1` (stereo not shown) [GT-07714, 3-(5-((4-(4-((5-chloro-4-((2-(dimethylphosphoryl)phenyl)amino)pyrimidin-2-yl)amino)-3-methoxyphenyl)piperazin-1-yl)methyl)pyridin-3-yl)piperidine-2,6-dione] showed a concentration for half-maximal inhibition (IC50) under setting [1] of less than 500 nM.

For `COc1cc2nn(C3CCN(Cc4cc(N5CCC(=O)NC5=O)cnc4F)CC3)cc2cc1NC(=O)c1cccc(C(F)(F)F)c1` [GT-07781, N-(2-(1-((5-(2,4-dioxotetrahydropyrimidin-1(2H)-yl)-2-fluoropyridin-3-yl)methyl)piperidin-4-yl)-6-methoxy-2H-indazol-5-yl)-3-(trifluoromethyl)benzamide], the “Inhibition rate (%) at 0.5 μM” value (CRBN binding, HTRF, compound at 0.5 μM) is “a1 (10% < a1 ≤ 20%)”. For the same compound, the “Inhibition rate (%) at 2 μM” value (CRBN binding, HTRF, compound at 2 μM) is “a5 (53% < a5 ≤ 60%)”.

In the case of `CC1(C)CCC(c2ccc(Cl)cc2)=C(CN2CCN(c3ccc(C(=O)NS(=O)(=O)c4ccc(N[C@H](CCN5CC6CCC(C5)N6Cc5ccc(C6CCC(=O)NC6=O)cc5)CSc5ccccc5)c(S(=O)(=O)C(F)(F)F)c4)cc3)CC2)C1` (stereo partly drawn) [GT-07858, 4-(4-((4′-chloro-4,4-dimethyl-3,4,5,6-tetrahydro-[1,1′-biphenyl]-2-yl)methyl)piperazin-1-yl)-N-((4-(((2R)-4-(8-(4-(2,6-dioxopiperidin-3-yl)benzyl)-3,8-diazabicyclo[3.2.1]octan-3-yl)-1-(phenylthio)butan-2-yl)amino)-3-((trifluoromethyl)sulfonyl)phenyl)sulfonyl)benzamide], the inhibition at 0.5 µM (CRBN binding, HTRF, compound at 0.5 μM, read-out: Inhibition rate (%) at 0.5 μM) was 30 to 40%. In addition, the inhibition at 2 µM (CRBN binding, HTRF, compound at 2 μM, read-out: Inhibition rate (%) at 2 μM) fell in the range of 60 to 80%.

In turn, `C=CC(=O)N1CCC(c2ccc(C(N)=O)c(-c3ccc(Oc4ccccc4)cc3)n2)CC1` [Orelabrutinib, reference compound] gave an IC50 under setting [1] greater than 10000 nM.

On to `CN(C)C/C=C/C(=O)Nc1cc2c(Nc3ccc(F)c(Cl)c3)ncnc2cc1O[C@H]1CCOC1` [afatinib], for which the IC50 under setting [1] is greater than 10000 nM.

Under setting [1], `C#Cc1cccc(Nc2ncnc3cc(OCCOC)c(OCCOC)cc23)c1` [erlotinib, reference compound] returned a 50% inhibitory concentration (IC50) greater than 10000 nM.

In turn, `C=CC(=O)N1CCC[C@@H](n2nc(-c3ccc(Oc4ccccc4)cc3)c3c(N)ncnc32)C1` [ibrutinib, Ibrutinib, reference compound] returned a concentration for half-maximal inhibition (IC50) under setting [1] greater than 10000 nM.

As for `C=CC(=O)Nc1cc(Nc2nccc(-c3cn(C)c4ccccc34)n2)c(OC)cc1N(C)CCN(C)C` [osimertinib, reference compound], the half-inhibitory concentration (IC50) is greater than 10000 nM.

Source of the values: US20260274829A1, “NEW E3 UBIQUITIN LIGASE LIGAND, PROTEIN DEGRADATION AGENT AND USE THEREOF” (GLUETACS THERAPEUTICS (SHANGHAI) CO., LTD., priority 2023, published 2026).
